According to ChEMBL document CHEMBL1133967, “New leads for selective inhibitors of alpha-L-fucosidases. Synthesis and glycosidase inhibitory activities of [(2R,3S,4R)-3,4-dihydroxypyrrolidin-2-yl]furan derivatives” (Bioorg Med Chem Lett, 2001):
Blank lines part the entries; values can stand above or below the molecule they belong to. Activity calls are given as the source filed them. The rule behind the calls is not given here.

Experiments:
[1] = system: Beta-N-acetylglucosaminidase (Bos taurus); assay: Inhibitory activity against Beta-N-acetylglucosaminidase of bovine epididymis B at 1 mM; No inhibition
[2] = system: Prunus dulcis; assay: Percent inhibition against Alpha-mannosidase of Almonds at 1 mM
[3] = biological target: T1, Beta-galactosidase (Bos taurus) (UniProt Q58D55); assay: Percent inhibition against Beta-D-galactosidase of bovine liver at 1 mM
T1 sequence (whole entry): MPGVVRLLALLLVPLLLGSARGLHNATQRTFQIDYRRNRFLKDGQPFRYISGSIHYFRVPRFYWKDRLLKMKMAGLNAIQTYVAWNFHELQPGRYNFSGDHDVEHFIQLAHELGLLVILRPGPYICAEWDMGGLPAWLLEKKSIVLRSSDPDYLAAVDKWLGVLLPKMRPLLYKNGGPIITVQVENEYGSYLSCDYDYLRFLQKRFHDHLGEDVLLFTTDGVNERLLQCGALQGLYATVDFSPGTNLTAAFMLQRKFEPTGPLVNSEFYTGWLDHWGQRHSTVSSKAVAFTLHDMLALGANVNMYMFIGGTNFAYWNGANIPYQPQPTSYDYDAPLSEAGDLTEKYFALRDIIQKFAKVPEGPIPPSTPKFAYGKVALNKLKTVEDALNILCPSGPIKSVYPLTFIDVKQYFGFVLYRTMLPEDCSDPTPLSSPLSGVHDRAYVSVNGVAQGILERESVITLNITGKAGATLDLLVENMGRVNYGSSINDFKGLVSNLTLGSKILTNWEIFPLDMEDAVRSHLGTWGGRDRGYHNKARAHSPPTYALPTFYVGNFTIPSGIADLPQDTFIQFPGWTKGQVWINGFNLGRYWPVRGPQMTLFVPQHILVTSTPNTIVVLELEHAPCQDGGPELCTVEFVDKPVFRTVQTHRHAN

[4] = biological target: T2, Beta-galactosidase (Aspergillus niger) (UniProt P29853); assay: Inhibitory activity against Beta-D-galactosidase of Aspergillus niger at 1 mM; No inhibition
T2 sequence (whole entry): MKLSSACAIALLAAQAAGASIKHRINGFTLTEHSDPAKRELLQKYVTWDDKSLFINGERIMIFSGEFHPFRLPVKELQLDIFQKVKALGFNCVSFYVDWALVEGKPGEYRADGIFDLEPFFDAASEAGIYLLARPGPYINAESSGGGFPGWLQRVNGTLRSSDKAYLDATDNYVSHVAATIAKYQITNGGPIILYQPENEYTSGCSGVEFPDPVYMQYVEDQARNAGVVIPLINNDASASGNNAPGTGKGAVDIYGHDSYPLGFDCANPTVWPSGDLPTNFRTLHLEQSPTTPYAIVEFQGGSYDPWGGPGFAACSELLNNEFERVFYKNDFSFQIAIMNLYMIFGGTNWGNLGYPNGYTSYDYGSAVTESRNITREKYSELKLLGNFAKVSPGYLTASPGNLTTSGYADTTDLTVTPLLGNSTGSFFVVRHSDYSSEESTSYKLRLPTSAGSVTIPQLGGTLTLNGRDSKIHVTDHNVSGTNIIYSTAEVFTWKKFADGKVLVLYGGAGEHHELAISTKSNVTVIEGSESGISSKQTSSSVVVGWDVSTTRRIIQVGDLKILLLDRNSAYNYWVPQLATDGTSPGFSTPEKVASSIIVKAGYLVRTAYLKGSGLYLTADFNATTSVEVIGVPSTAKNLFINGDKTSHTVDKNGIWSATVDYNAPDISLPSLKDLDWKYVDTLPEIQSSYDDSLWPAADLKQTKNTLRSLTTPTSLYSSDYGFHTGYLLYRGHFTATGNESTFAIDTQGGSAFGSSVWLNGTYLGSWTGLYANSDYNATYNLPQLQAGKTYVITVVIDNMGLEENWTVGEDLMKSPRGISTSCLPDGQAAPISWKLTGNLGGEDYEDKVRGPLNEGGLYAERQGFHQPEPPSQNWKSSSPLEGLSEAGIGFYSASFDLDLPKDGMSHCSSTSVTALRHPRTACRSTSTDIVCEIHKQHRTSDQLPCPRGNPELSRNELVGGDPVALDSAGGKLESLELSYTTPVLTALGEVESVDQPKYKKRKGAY

[5] = system: Aspergillus niger; assay: Inhibitory activity against Alpha-galactosidase of Aspergillus niger at 1 mM; No inhibition
[6] = system: Helix pomatia; assay: Inhibitory activity against Beta-mannosidase of Helix pomatia at 1 mM; No inhibition
[7] = system: maltase (Saccharomyces cerevisiae); assay: Inhibitory activity against maltase of yeast at 1 mM; No inhibition
[8] = biological target: Beta-galactosidase (Escherichia coli) (UniProt Q8VNN2); assay: Inhibitory activity against Beta-D-galactosidase of Escherichia coli at 1 mM; No inhibition
[9] = biological target: T3, Tissue alpha-L-fucosidase (Homo sapiens, UniProt P04066); assay: Inhibitory concentration against alpha-L-Fucosidase of human placenta
T3 sequence (P04066 whole entry): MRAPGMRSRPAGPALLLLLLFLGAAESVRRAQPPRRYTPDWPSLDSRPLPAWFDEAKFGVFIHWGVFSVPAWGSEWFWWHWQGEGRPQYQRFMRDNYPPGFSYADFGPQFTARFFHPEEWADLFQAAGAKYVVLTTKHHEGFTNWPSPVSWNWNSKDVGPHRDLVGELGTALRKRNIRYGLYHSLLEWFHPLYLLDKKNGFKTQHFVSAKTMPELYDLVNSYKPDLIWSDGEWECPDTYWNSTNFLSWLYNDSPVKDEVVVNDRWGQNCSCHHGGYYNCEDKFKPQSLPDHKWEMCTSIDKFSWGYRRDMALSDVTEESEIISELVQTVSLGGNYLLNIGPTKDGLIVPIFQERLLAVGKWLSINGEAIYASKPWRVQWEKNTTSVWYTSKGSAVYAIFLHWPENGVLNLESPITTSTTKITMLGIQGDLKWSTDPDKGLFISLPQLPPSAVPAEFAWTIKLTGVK

[10] = biological target: Glucoamylase (Aspergillus niger) (UniProt P69328); assay: Percent inhibition against Amyloglucosidase of Aspergillus niger at 1 mM
[11] = system: Beta-N-acetylglucosaminidase (Bos taurus); assay: Inhibitory activity against Beta-N-acetylglucosaminidase of bovine epididymis A at 1 mM; No inhibition
[12] = system: Canavalia ensiformis; assay: Inhibitory activity against Beta-D-galactosidase of Jack bean at 1 mM; No inhibition
[13] = system: isomaltase (Saccharomyces cerevisiae); assay: Inhibitory activity against isomaltase of baker yeast at 1 mM; No inhibition
[14] = biological target: T4, Tissue alpha-L-fucosidase (Homo sapiens) (UniProt P04066); assay: Percent inhibition against alpha-L-Fucosidase of human placenta at 1 mM
T4 sequence (whole entry): T3 sequence (P04066 whole entry)

[15] = system: maltase (Oryza sativa); assay: Inhibitory activity against maltase of rice at 1 mM; No inhibition
[16] = system: Coffea arabica; assay: Percent inhibition against Alpha-galactosidase of coffee bean at 1 mM
[17] = species on record: Gallus gallus; assay: Inhibitory activity against alpha-N-acetylgalactosaminidase of chicken liver at 1 mM; No inhibition
[18] = system: Prunus dulcis; assay: Inhibitory activity against Beta-glucosidase of almonds at 1 mM; No inhibition
[19] = biological target: T3, Tissue alpha-L-fucosidase; assay: Inhibitory activity against alpha-L-Fucosidase of human placenta expressed as Ki
[20] = system: Aspergillus oryzae; assay: Inhibitory activity against Beta-D-galactosidase of Aspergillus oryzae at 1 mM; No inhibition
[21] = system: Caldicellulosiruptor saccharolyticus; assay: Inhibitory activity against Beta-glucosidase of Caldocellum saccharolyticum at 1 mM; No inhibition
[22] = system: Beta-N-acetylglucosaminidase (Canavalia ensiformis); assay: Inhibitory activity against Beta-N-acetylglucosaminidase of Jack bean at 1 mM; No inhibition
[23] = system: Rhizopus; assay: Percent inhibition against Amyloglucosidase of Rhizopus mold at 1 mM
[24] = biological target: Beta-galactosidase (Bos taurus, UniProt Q58D55); assay: Inhibitory concentration against Beta-D-galactosidase of bovine liver
[25] = system: Escherichia coli; assay: Inhibitory activity against Alpha-galactosidase of Escherichia coli at 1 mM; No inhibition
[26] = system: Canavalia ensiformis; assay: Percent inhibition against Alpha-mannosidase of Jack bean at 1 mM
[27] = Inhibitory concentration against Alpha-mannosidase of Jack bean; design: species or system Canavalia ensiformis
[28] = biological target: Beta-galactosidase (Escherichia coli) (UniProt Q8VNN2); assay: Inhibitory activity against beta-D-Galactosidase of Escherichia coli at 1 mM; No inhibition
[29] = Inhibitory activity against Alpha-mannosidase of Jack bean expressed as Ki; design: species or system Canavalia ensiformis

Sequence of Beta-galactosidase (Escherichia coli) (Q8VNN2 whole entry, looked up): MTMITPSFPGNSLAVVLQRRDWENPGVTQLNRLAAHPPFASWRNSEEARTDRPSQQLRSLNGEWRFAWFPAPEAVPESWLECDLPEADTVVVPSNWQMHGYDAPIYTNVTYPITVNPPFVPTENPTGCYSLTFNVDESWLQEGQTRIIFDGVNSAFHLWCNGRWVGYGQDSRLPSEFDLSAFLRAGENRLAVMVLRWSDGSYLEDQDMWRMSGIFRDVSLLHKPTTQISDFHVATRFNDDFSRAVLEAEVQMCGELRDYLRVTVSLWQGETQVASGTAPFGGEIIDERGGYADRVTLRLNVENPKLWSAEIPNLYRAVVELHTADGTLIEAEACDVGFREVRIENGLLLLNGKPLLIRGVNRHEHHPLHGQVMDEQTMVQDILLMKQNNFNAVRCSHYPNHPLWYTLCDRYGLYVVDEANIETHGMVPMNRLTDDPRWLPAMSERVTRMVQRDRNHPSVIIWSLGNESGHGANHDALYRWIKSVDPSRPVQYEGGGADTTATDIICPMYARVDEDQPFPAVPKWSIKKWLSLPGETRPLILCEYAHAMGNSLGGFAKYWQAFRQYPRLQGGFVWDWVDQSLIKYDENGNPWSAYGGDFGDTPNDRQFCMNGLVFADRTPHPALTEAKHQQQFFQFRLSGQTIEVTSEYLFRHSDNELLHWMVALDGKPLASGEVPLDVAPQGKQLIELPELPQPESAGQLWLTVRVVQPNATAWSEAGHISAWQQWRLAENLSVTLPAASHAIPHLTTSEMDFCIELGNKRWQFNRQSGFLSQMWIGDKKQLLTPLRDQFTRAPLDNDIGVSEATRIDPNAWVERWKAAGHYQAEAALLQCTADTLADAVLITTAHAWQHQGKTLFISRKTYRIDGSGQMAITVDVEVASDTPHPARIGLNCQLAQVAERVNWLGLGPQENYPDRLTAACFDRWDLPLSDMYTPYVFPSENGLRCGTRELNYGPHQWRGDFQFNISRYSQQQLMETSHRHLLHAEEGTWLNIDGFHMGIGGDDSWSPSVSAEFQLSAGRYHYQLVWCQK
Sequence of Glucoamylase (Aspergillus niger) (P69328 whole entry): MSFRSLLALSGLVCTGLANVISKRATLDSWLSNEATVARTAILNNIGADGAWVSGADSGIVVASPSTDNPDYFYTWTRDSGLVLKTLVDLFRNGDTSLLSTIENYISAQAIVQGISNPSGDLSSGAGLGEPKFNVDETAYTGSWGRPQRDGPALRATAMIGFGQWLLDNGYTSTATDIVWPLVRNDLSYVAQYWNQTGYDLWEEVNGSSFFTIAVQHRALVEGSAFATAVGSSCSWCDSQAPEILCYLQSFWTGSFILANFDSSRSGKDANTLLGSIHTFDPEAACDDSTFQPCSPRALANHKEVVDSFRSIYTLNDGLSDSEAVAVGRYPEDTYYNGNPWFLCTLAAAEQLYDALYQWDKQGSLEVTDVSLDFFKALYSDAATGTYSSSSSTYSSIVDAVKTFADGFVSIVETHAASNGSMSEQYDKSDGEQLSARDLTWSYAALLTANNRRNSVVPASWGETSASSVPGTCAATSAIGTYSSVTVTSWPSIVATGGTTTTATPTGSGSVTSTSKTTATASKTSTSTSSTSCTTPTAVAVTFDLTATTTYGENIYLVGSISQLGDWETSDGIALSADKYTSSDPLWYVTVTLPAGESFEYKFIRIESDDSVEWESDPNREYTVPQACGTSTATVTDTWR

inhibition [1]: inactive
inhibition [2]: 36%
inhibition [3]: 54%
inhibition [4]: No inhibition
inhibition [5]: No inhibition
inhibition [6]: No inhibition
inhibition [7]: No inhibition
inhibition [8]: No inhibition
IC50 [9]: 150 µM
inhibition [10]: 23%
inhibition [11]: inactive
inhibition [12]: No inhibition
inhibition [13]: No inhibition
inhibition [14]: 88%
inhibition [15]: No inhibition
inhibition [16]: 42%
inhibition [17]: No inhibition
inhibition [18]: inactive
Ki [19]: 13.8 µM
inhibition [20]: No inhibition
inhibition [21]: No inhibition
inhibition [22]: inactive
inhibition [23]: 33%
IC50 [24]: 800 µM
inhibition [25]: No inhibition
inhibition [26]: 23%
SMILES: COC(=O)c1cc(C2NCC(O)C2O)oc1C (stereo not given)

inhibition [2]: 57%
inhibition [3]: 57%
inhibition [4]: inactive
IC50 [27]: 250 µM
inhibition [10]: 27%
inhibition [28]: inactive
IC50 [24]: 640 µM
Ki [29]: 85 µM
inhibition [26]: 78%
SMILES: Cc1oc(C2NCC(O)C2O)cc1C(=O)OC(C)C (stereo not given)
